# Measured values: patent publication US20240360137A1 (Novartis AG, priority 2023, published 2024)
# Assays:
# Assay in all cases: CDKi biochemical assay (TR-FRET, phosphorylation of S780 on RB1 peptide)
# CDK2/CyclinE1 = CDK2/CyclinE1 (Homo sapiens, UniProt P24941); details: CDK2/CyclinE1 100 pM, 1 mM ATP, 60 min at 25° C.
# Procedure: (§1) Biochemical assays measured the inhibitory effects of compounds in this disclosure on the enzymatic activity of CDK enzyme in complex with Cyclin protein partner by phosphorylation of Ser-780 (S780) on retinoblastoma protein peptide (RB1) in the presence of 1 mM adenosime-5-triphosphate (ATP) and varying concentration of test compound in 20 mM 2-[4-(2-hydroxyethyl)paperazin-1-yl] ethanesulfonic acid (HEPES), pH 7.5, 10 mM MgCl2, 1 mM dithiothreitol (DTT), 0.01% bovine serum albumin (BSA), 0.005% Tween 20. Total Reaction volume of 10 μL proceeded for 60 minutes at room temperature (25° C.) and were quenched with 5 μL of 200 mM 2′,2″,2′″-(Ethane-1,2-diyldinitrilo)tetraacetic acid (EDTA) pH 8.0 before addition of 5 μL detection solution containing 100 nM fluorophore conjugate streptavidin allophycocyanin (SA-APC), 2 nM Europium labelled Anti-p-RB(S780)-K (Perkin Elmer, 64CUSKAY), 50 mM HEPES, pH 7.5, 400 mM potassium fluoride (KF), 0.1% BSA, and 0.01% Tween-20. Phosphorylation of S780 on RB1 peptide (His-MBP-RB1[773-924]-SEQ ID NO. 9) was detected by TR-FRET after 3 hour incubation with detection solution. Percent phosphorylation activity was plotted against log concentration of compound to generate an apparent ICSO. The following CDK enzyme in complex with different cyclin proteins and protein peptide substrate were used in these assays: • CDK1/CyclinB1, Avi-tag, 10 pM used in the assay • CDK2/CyclinE1, Avi-tag, 100 pM used in the assay • CDK4/cyclinD1, Avi-tag, 20 pM used in the assay • CDK6/cyclinD3, Avi-tag, 10 pM used in the assay • His-MBP-RB1[773-924], Avi-tag, 200 nM used in the assay
# (§2) The avi-tag is a C-terminal fusion on the CDK1/2/4/6 sequence in each of these two-protein complexes. The known avi-tag sequence, […] (SEQ ID NO. 10), is a substrate for E. coli biotin ligase BirA, which covalently attaches a biotin molecule to the e-amino group of the lysine in that sequence. The avi-tag is attached with an 8 amino-acid linker sequence GGSGGGGS (SEQ ID NO. 11), resulting in the full C-terminal fusion
# (§3) Recombinant proteins were generated as N-terminal fusions of 9× His tag—E. coli Maltose Binding Protein (MBP), with or without a C-terminal Avi-tag.^1 CDK2 and His-MBP-RB1[773-924]-c-avi were expressed in E. coli while the remainder were expressed in Sf21 insect cells. Genes were synthesized commercially (GeneArt and Twist Bioscience) using codon frequencies appropriate to the respective organisms and proprietary codon optimization strategies, and inserted into pET 24 (E. coli) or pDEST8 (insect) vectors already containing the 9× His-MBP tag using standard methods of PCR and Gibson Assembly.^2 E. coli expression was performed by auto-induction overnight at 18 or 21 C. For insect cell expression, bacmids and viruses were created,^3 then used to synchronously infect Sf21 insect cells with harvest at 40-48 hrs., per standard protocols.^4
# (§4) For CDK2/Cyclin E and CDK1/Cyclin B, the CDK and Cyclin proteins were expressed separately, lysed by sonication and clarified by centrifugation. The fusion proteins were each separately purified by immobilized metal ion affinity chromatography (IMAC) (5 mL HisTrap, Cytiva) and Superdex 200 26/60 (Cytiva) size-exclusion and complexed in vitro (1-3 hrs incubation at room temperature) prior to tag cleavage by recombinant his-tagged Tobacco Etch Virus protease or his-tagged Human rhinovirus 3C protease, as appropriate. The cleaved complex is further purified by Superdex 75 26/60 (Cytiva) size-exclusion followed by reverse-IMAC, in which the complex is in the column flow-through and residual His-MBP and his-tagged proteases are retained. The final complex is concentrated as desired by centrifugal concentration (Amicon Ultra 10,000 Da MWCO 15 mL concentrators, Millipore).
# For E. coli expressed CDK2 and His-MBP-RB1[773-924]-c-avi, the proteins were biotinylated in vitro after the first IMAC step.^1
# (§5) For the is-MBP-RB1[773-924]-c-avi, the protein was lysed by sonication and clarified by centrifugation. […]
# CDK4/cyclinD1 = CDK4/cyclinD1 (Homo sapiens, UniProt P11802); details: CDK4/cyclinD1 20 pM, 1 mM ATP, 60 min at 25° C.
# Procedure: as §1, §2, §3
# (§6) For CDK4/Cyclin D1 and CDK6/Cyclin D3, the complexes were expressed by simultaneous co-infection of insect cells by three separate viruses including one expressing untagged E. coli BirA. The expression media is supplemented with 50 uM d-biotin. The resulting protein complexes purified similarly. After lysis and clarification, the complex is purified by IMAC, Superdex 200 26/60 size exclusion, tag cleavage by human rhinovirus 3C protease, Superdex 75 26/60 size exclusion and reverse IMAC. BirA is typically not retained on the first IMAC, and excess CDK or Cyclin monomer is separated on the Superdex 200 size exclusion. Cleaved His-MBP and remaining monomer are removed by the Superdex 75 size exclusion and the reverse IMAC step. Final concentration by centrifugal concentrators as described above.
# as §5
# CDK6/cyclinD3 = CDK6/cyclinD3 (Homo sapiens, UniProt Q00534); details: CDK6/cyclinD3 10 pM, 1 mM ATP, 60 min at 25° C.
# Procedure: as §1, §2, §3, §6, §5
# CDK1/CyclinB1 = CDK1/CyclinB1 (Homo sapiens, UniProt P06493); details: CDK1/CyclinB1 10 pM, 1 mM ATP, 60 min at 25° C.
# Procedure: as §1, §2, §3, §4, §5
SMILES,IC50 (CDK2/CyclinE1) [µM],IC50 (CDK4/cyclinD1) [µM],IC50 (CDK6/cyclinD3) [µM],IC50 (CDK1/CyclinB1) [µM]
"O=C1N([C@@H]2CCC[C@@H](O)C2)c2nc(Nc3c[nH]nc3C3CC3(F)F)ncc2C12CC2 (single isomer, unassigned) [Example 32]",0.006,2.76,4.8,0.34
"Cn1cc(Nc2ncc3c(n2)N([C@@H]2CCC[C@@H](O)C2)C(=O)C32CC2)cn1 [Example 1, 7′-((1R,3R)-3-hydroxycyclohexyl)-2′-((1-methyl-1H-pyrazol-4-yl)amino)spiro[cyclopropane-1,5′-pyrrolo[2,3-d]pyrimidin]-6′(7′H)-one]",0.038,0.4,0.6,1.54
"Cc1n[nH]cc1Nc1ncc2c(n1)N([C@@H]1CCC[C@@H](O)C1)C(=O)C21CC1 [Example 2, 7′-((1R,3R)-3-hydroxycyclohexyl)-2′-((3-methyl-1H-pyrazol-4-yl)amino)spiro[cyclopropane-1,5′-pyrrolo[2,3-d]pyrimidin]-6′(7′H)-one]",0.018,4.52,6.68,1.21
"O=C1N([C@@H]2CCC[C@@H](O)C2)c2nc(Nc3c[nH]nc3C(F)F)ncc2C12CC2 [Example 3, 2′-((3-(difluoromethyl)-1H-pyrazol-4-yl)amino)-7′-((1R,3R)-3-hydroxycyclohexyl)spiro[cyclopropane-1,5′-pyrrolo[2,3-d]pyrimidin]-6′(7′H)-one]",0.007,2.74,3.76,0.82
"COC(=O)c1n[nH]cc1Nc1ncc2c(n1)N([C@@H]1CCC[C@@H](O)C1)C(=O)C21CC1 [Example 4, methyl 4-((7′-((1R,3R)-3-hydroxycyclohexyl)-6′-oxo-6′,7′-dihydrospiro[cyclopropane-1,5′-pyrrolo[2,3-d]pyrimidin]-2′-yl)amino)-1H-pyrazole-3-carboxylate]",0.096,≥ 10,≥ 10,≥ 10
"Cc1cc(Nc2ncc3c(n2)N([C@@H]2CCC[C@@H](O)C2)C(=O)C32CC2)[nH]n1 [Example 5, 7′-((1R,3R)-3-hydroxycyclohexyl)-2′-((3-methyl-1H-pyrazol-5-yl)amino)spiro[cyclopropane-1,5′-pyrrolo[2,3-d]pyrimidin]-6′(7′H)-one]",1.12,6.69,5.73,≥ 10
"O=C1N([C@@H]2CCC[C@@H](O)C2)c2nc(Nc3c[nH]nc3C3CCOC3)ncc2C12CC2 (stereo partly drawn) [Example 8, 7′-((1R,3R)-3-hydroxycyclohexyl)-2′-((3-(tetrahydrofuran-3-yl)-1H-pyrazol-4-yl)amino)spiro[cyclopropane-1,5′-pyrrolo[2,3-d]pyrimidin]-6′(7′H)-one]",0.234,≥ 10,≥ 10,≥ 10
"COc1n[nH]cc1Nc1ncc2c(n1)N([C@@H]1CCC[C@@H](O)C1)C(=O)C21CC1 [Example 12, 7′-((1R,3R)-3-hydroxycyclohexyl)-2′-((3-methoxy-1H-pyrazol-4-yl)amino)spiro[cyclopropane-1,5′-pyrrolo[2,3-d]pyrimidin]-6′(7′H)-one]",0.02,7.37,7.9,2.24
"CSc1n[nH]cc1Nc1ncc2c(n1)N([C@@H]1CCC[C@@H](O)C1)C(=O)C21CC1 [Example 52, 7′-((1R,3R)-3-hydroxycyclohexyl)-2′-((3-(methylthio)-1H-pyrazol-4-yl)amino)spiro[cyclopropane-1,5′-pyrrolo[2,3-d]pyrimidin]-6′(7′H)-one]",0.031,–,≥ 10,5.32

# Further molecules by falling IC50 (CDK2/CyclinE1), results first:
IC50 (CDK2/CyclinE1) [µM],IC50 (CDK4/cyclinD1) [µM],IC50 (CDK6/cyclinD3) [µM],IC50 (CDK1/CyclinB1) [µM],SMILES
1.35,5.73,9.35,≥ 10,"COCc1ncc(Nc2ncc3c(n2)N([C@@H]2CCC[C@@H](O)C2)C(=O)C32CC2)[nH]1 [Example 11, 7′-((1R,3R)-3-hydroxycyclohexyl)-2′-((2-(methoxymethyl)-1H-imidazol-5-yl)amino)spiro[cyclopropane-1,5′-pyrrolo[2,3-d]pyrimidin]-6′(7′H)-one]"
1.22,≥ 10,≥ 10,≥ 10,"O=C1N([C@@H]2CCC[C@@H](O)C2)c2nc(Nc3c[nH]nc3C3CCCCO3)ncc2C12CC2 (stereo partly drawn) [Example 10, 7′-((1R,3R)-3-hydroxycyclohexyl)-2′-((3-(tetrahydro-2H-pyran-2-yl)-1H-pyrazol-4-yl)amino)spiro[cyclopropane-1,5′-pyrrolo[2,3-d]pyrimidin]-6′(7′H)-one]"
0.268,≥ 10,≥ 10,≥ 10,"O=C1N([C@@H]2CCC[C@@H](O)C2)c2nc(Nc3cnn4c3CNCC4)ncc2C12CC2 [Example 9, 7′-((1R,3R)-3-hydroxycyclohexyl)-2′-((4,5,6,7-tetrahydropyrazolo[1,5-a]pyrazin-3-yl)amino)spiro[cyclopropane-1,5′-pyrrolo[2,3-d]pyrimidin]-6′(7′H)-one]"
0.136,3.86,2.21,5.99,"Cc1n[nH]cc1Nc1ncc2c(n1)N([C@H]1C[C@H](O)CC(C)(C)C1)C(=O)C21CC1 [Example 7, 7′-((1R,5R)-5-hydroxy-3,3-dimethylcyclohexyl)-2′-((3-methyl-1H-pyrazol-4-yl)amino)spiro[cyclopropane-1,5′-pyrrolo[2,3-d]pyrimidin]-6′(7′H)-one]"
0.114,≥ 10,–,≥ 10,COc1n[nH]cc1Nc1ncc2c(n1)N([C@@H]1CCCC[C@@H](O)C1)C(=O)C21CC1 [Example 18]
0.032,0.84,2.18,2.94,"O=C1N([C@@H]2CCC[C@@H](O)C2)c2nc(Nc3c[nH]nc3CO)ncc2C12CC2 [Example 6, 7′-((1R,3R)-3-hydroxycyclohexyl)-2′-((3-(hydroxymethyl)-1H-pyrazol-4-yl)amino)spiro[cyclopropane-1,5′-pyrrolo[2,3-d]pyrimidin]-6′(7′H)-one]"
0.012,5.28,7.1,0.92,"O=C1N([C@@H]2CCC[C@@H](O)C2)c2nc(Nc3c[nH]nc3Cl)ncc2C12CC2 [Example 13, 2′-((3-chloro-1H-pyrazol-4-yl)amino)-7′-((1R,3R)-3-hydroxycyclohexyl)spiro[cyclopropane-1,5′-pyrrolo[2,3-d]pyrimidin]-6′(7′H)-one]"
